Patent US11807644B2 (PMV Pharmaceuticals, Inc., priority 2020, dated 2023)

These molecules were tested against T1, recombinant His-tag Y220C p53 DBD protein (Homo sapiens, UniProt P04637, Y220C) (assay: In vitro DNA binding activity assay (TR-FRET): binding of His-tag Y220C p53 DBD to biotin-labeled consensus DNA). Details: SC150 = concentration to increase DNA binding by […], His-tag Y220C p53 DBD, biotin-labeled consensus DNA.
T1 construct: recombinant His-tag Y220C p53 DBD protein (amino acids #˜94-312)
Type: biochemical

| Structure (SMILES) | Y220C SC150 (μM) |
| --- | --- |
| CN1CCC(Nc2cccc3c2cc(-c2noc(CNc4ccccc4)n2)n3CC(F)(F)F)CC1 [Compound 142B, N-(1-methylpiperidin-4-yl)-2-{5-[(phenylamino)methyl]-1,2,4-oxadiazol-3-yl}-1-(2,2,2-trifluoroethyl)-1H-indol-4-amine] | * (* = 0 μM ≤ SC150 < 0.1 μM) |
| CN1CC[C@@H](Nc2cccc3c2cc(-c2noc(CNC(=O)c4cnn(C5CCCCC5)c4)n2)n3CC(F)(F)F)[C@@H](F)C1 [Compound 326B, 1-cyclohexyl-N-{[3-(4-{[(3S,4R)-3-fluoro-1-methylpiperidin-4-yl]amino}-1-(2,2,2-trifluoroethyl)-1H-indol-2-yl)-1,2,4-oxadiazol-5-yl]methyl}-1H-pyrazole-4-carboxamide] | * (* = 0 μM ≤ SC150 < 0.1 μM) |
| CN1CCN(C[C@@H]2C[C@H]2C(=O)NCc2nc(-c3cc4c(N[C@@H]5CCN(C)C[C@@H]5F)cccc4n3CC(F)(F)F)no2)CC1 [Compound 234B, (1R,2R)-N-{[3-(4-{[(3S,4R)-3-fluoro-1-methylpiperidin-4-yl]amino}-1-(2,2,2-trifluoroethyl)-1H-indol-2-yl)-1,2,4-oxadiazol-5-yl]methyl}-2-[(4-methylpiperazin-1-yl)methyl]cyclopropane-1-carboxamide] | * (* = 0 μM ≤ SC150 < 0.1 μM) |
| CN1CCC(Nc2cccc3c2cc(-c2nnc(CNC(=O)c4ccc(F)cc4)s2)n3CC(F)(F)F)CC1 [Compound 52B, 4-fluoro-N-[(5-{4-[(1-methylpiperidin-4-yl)amino]-1-(2,2,2-trifluoroethyl)-1H-indol-2-yl}-1,3,4-thiadiazol-2-yl)methyl]benzamide] | * (* = 0 μM ≤ SC150 < 0.1 μM) |
| CN1CC[C@@H](Nc2cccc3c2cc(-c2nnc(CNC(=O)C4CC4)s2)n3CC(F)(F)F)[C@@H](F)C1 [Compound 47B, N-{[5-(4-{[(3S,4R)-3-fluoro-1-methylpiperidin-4-yl]amino}-1-(2,2,2-trifluoroethyl)-1H-indol-2-yl)-1,3,4-thiadiazol-2-yl]methyl}cyclopropanecarboxamide] | * (* = 0 μM ≤ SC150 < 0.1 μM) |

The next lines start with the values.

| Y220C SC150 (μM) | Structure (SMILES) |
| --- | --- |
| * (* = 0 μM ≤ SC150 < 0.1 μM) | CN1CC[C@@H](F)[C@@H](Nc2cccc3c2cc(-c2noc(CNC(=O)c4ccn(C5(C)CCOCC5)c4)n2)n3CC(F)(F)F)C1 [Compound 419B, N-{[3-(4-{[(3S,4R)-4-fluoro-1-methylpiperidin-3-yl]amino}-1-(2,2,2-trifluoroethyl)-1H-indol-2-yl)-1,2,4-oxadiazol-5-yl]methyl}-1-(4-methyloxan-4-yl)-1H-pyrrole-3-carboxamide] |
| * (* = 0 μM ≤ SC150 < 0.1 μM) | CC(C)n1cnc(C(=O)NCc2nc(-c3cc4c(N[C@@H]5CCN(C)C[C@@H]5F)cccc4n3CC(F)(F)F)no2)c1 [Compound 232B, N-{[3-(4-{[(3S,4R)-3-fluoro-1-methylpiperidin-4-yl]amino}-1-(2,2,2-trifluoroethyl)-1H-indol-2-yl)-1,2,4-oxadiazol-5-yl]methyl}-1-(propan-2-yl)-1H-imidazole-4-carboxamide] |
| * (* = 0 μM ≤ SC150 < 0.1 μM) | CN(C)CCn1ccc(C(=O)NCc2nc(-c3cc4c(N[C@@H]5CCN(C)C[C@@H]5F)cccc4n3CC(F)(F)F)no2)c1 [Compound 229B, 1-[2-(dimethylamino)ethyl]-N-{[3-(4-{[(3S,4R)-3-fluoro-1-methylpiperidin-4-yl]amino}-1-(2,2,2-trifluoroethyl)-1H-indol-2-yl)-1,2,4-oxadiazol-5-yl]methyl}-1H-pyrrole-3-carboxamide] |
| * (* = 0 μM ≤ SC150 < 0.1 μM) | CN1CC[C@@H](Nc2cccc3c2cc(-c2noc(CNC(=O)c4ccn(C5CC(F)(F)C5)c4)n2)n3CC(F)(F)F)[C@@H](F)C1 [Compound 451B, 1-(3,3-difluorocyclobutyl)-N-{[3-(4-{[(3S,4R)-3-fluoro-1-methylpiperidin-4-yl]amino}-1-(2,2,2-trifluoroethyl)-1H-indol-2-yl)-1,2,4-oxadiazol-5-yl]methyl}-1H-pyrrole-3-carboxamide] |
| * (* = 0 μM ≤ SC150 < 0.1 μM) | Cn1ccc(C(=O)NCc2nc(-c3cc4c(N[C@@H]5CCN(C(C)(C)C)C[C@H]5F)cccc4n3CC(F)(F)F)no2)c1 (racemic) [Compound 399B, N-{[3-(4-{[(3R,4R)-1-tert-butyl-3-fluoropiperidin-4-yl]amino}-1-(2,2,2-trifluoroethyl)-1H-indol-2-yl)-1,2,4-oxadiazol-5-yl]methyl}-1-methyl-1H-pyrrole-3-carboxamide] |
| * (* = 0 μM ≤ SC150 < 0.1 μM) | COCCn1ccc(C(=O)NCc2nc(-c3cc4c(N[C@@H]5CCN(C)C[C@@H]5F)cccc4n3CC(F)(F)F)no2)c1 [Compound 198B, N-{[3-(4-{[(3S,4R)-3-fluoro-1-methylpiperidin-4-yl]amino}-1-(2,2,2-trifluoroethyl)-1H-indol-2-yl)-1,2,4-oxadiazol-5-yl]methyl}-1-(2-methoxyethyl)-1H-pyrrole-3-carboxamide] |
| * (* = 0 μM ≤ SC150 < 0.1 μM) | CN1CC[C@@H](Nc2cccc3c2cc(-c2noc(CNC(=O)c4ccc(N5CCOCC5)cc4)n2)n3CC(F)(F)F)[C@@H](F)C1 [Compound 260B, N-{[3-(4-{[(3S,4R)-3-fluoro-1-methylpiperidin-4-yl]amino}-1-(2,2,2-trifluoroethyl)-1H-indol-2-yl)-1,2,4-oxadiazol-5-yl]methyl}-4-(morpholin-4-yl)benzamide] |
| * (* = 0 μM ≤ SC150 < 0.1 μM) | CN1CC[C@@H](Nc2cccc3c2cc(-c2noc(CNC(=O)c4cc5ccccn5c4)n2)n3CC(F)(F)F)[C@@H](F)C1 [Compound 196B, N-{[3-(4-{[(3S,4R)-3-fluoro-1-methylpiperidin-4-yl]amino}-1-(2,2,2-trifluoroethyl)-1H-indol-2-yl)-1,2,4-oxadiazol-5-yl]methyl}indolizine-2-carboxamide] |
| * (* = 0 μM ≤ SC150 < 0.1 μM) | COC(C)(C)c1cc(C(=O)NCc2nc(-c3cc4c(N[C@@H]5CCNC[C@@H]5F)cccc4n3CC(F)(F)F)no2)cs1 [Compound 489B, N-{[3-(4-{[(3S,4R)-3-fluoropiperidin-4-yl]amino}-1-(2,2,2-trifluoroethyl)-1H-indol-2-yl)-1,2,4-oxadiazol-5-yl]methyl}-5-(2-methoxypropan-2-yl)thiophene-3-carboxamide] |
| * (* = 0 μM ≤ SC150 < 0.1 μM) | CC1(n2ccc(C(=O)NCc3nc(-c4cc5c(N[C@H]6CCNC[C@H]6F)cccc5n4CC(F)(F)F)no3)c2)CCOCC1 [Compound 478B, N-{[3-(4-{[(3R,4S)-3-fluoropiperidin-4-yl]amino}-1-(2,2,2-trifluoroethyl)-1H-indol-2-yl)-1,2,4-oxadiazol-5-yl]methyl}-1-(4-methyloxan-4-yl)-1H-pyrrole-3-carboxamide] |

Same assay, conditions: concentration to increase DNA binding by […], incubated at either 27° C. or 29° C. for 60 min

| Structure (SMILES) | SC150 (μM) |
| --- | --- |
| N#CC1(c2ccc(-c3cc4c(NC5CCS(=O)(=O)CC5)cccc4n3CC(F)(F)F)cc2)CC1 [Compound 26A, 1-(4-{4-[(1,1-dioxo-1λ^6-thian-4-yl)amino]-1-(2,2,2-trifluoroethyl)-1H-indol-2-yl}phenyl)cyclopropane-1-carbonitrile] | ++ (++ = 2 μM ≤ SC150 < 5 μM) |
| COCC(O)CN1CCC(Nc2cccc3c2cc(-c2ccc4c[nH]nc4c2)n3CC(F)(F)F)CC1 (centres unmarked) [Compound 48A, 1-(4-{[2-(2H-indazol-6-yl)-1-(2,2,2-trifluoroethyl)-1H-indol-4-yl]amino}piperidin-1-yl)-3-methoxypropan-2-ol] | +++ (+++ = 5 μM ≤ SC150 < 10 μM) |
